Reference: ChEMBL document CHEMBL1141293, “Cassane furanoditerpenoids from the seed kernels of Caesalpinia bonduc from Thailand” (J Nat Prod, 2007)
Calls of active or inactive are those of the source. The rule behind the calls is not given here.

How the values were obtained:
CHAGO = experiment: Cytotoxicity against human CHAGO cells at 10 ug/ml by MTT assay; assay type: functional, cell-based
HepG2 = experiment: Cytotoxicity against human HepG2 cells at 10 ug/ml by MTT assay; assay type: functional, cell-based
SW-620 = experiment: Cytotoxicity against human SW620 cells at 10 ug/ml by MTT assay; assay type: functional, cell-based
KATO3 = experiment: Cytotoxicity against human KATO3 cells at 10 ug/ml by MTT assay; assay type: functional, cell-based
BT-474 = experiment: Cytotoxicity against human BT474 cells at 10 ug/ml by MTT assay; assay type: functional, cell-based
Plasmodium falciparum [1] = experiment: Antimalarial activity against multidrug-resistant Plasmodium falciparum K1 at 10 uM by microculture radioisotope assay; assay type: functional, organism-based
Plasmodium falciparum [2] = experiment: Antimalarial activity against multidrug-resistant Plasmodium falciparum K1 by microculture radioisotope assay; assay type: functional, organism-based

With `CC(=O)O[C@@H]1[C@@H]2[C@H](Cc3occc3[C@@]2(C)O)[C@@]2(C)C(=O)CCC(C)(C)[C@]2(O)[C@H]1OC(C)=O` the Activity (CHAGO) was “Not toxic”, the Activity (HepG2) was “Not toxic” and the Activity (SW-620) was “Not toxic”. For the same compound, the Activity (KATO3) was “Not toxic”, the Activity (BT-474) was “Not toxic” and the Activity (Plasmodium falciparum [1]) was “inactive”.

`C[C@H]1[C@@H](O)O[C@@H]2O[C@@]3(C)CC[C@H]4[C@H](C)CC[C@@H]1[C@@]24OO3` [ARTENIMOL] showed an IC50 (Plasmodium falciparum [2]) of 4 nM.

For `COC(=O)[C@@H]1c2ccoc2C[C@H]2[C@H]1[C@@H](OC(C)=O)[C@H](O)[C@@]1(O)C(C)(C)CCC(=O)[C@]21C` [BONDUCELLPIN E], the Activity (CHAGO) was “Not toxic”, the Activity (HepG2) was “Not toxic” and the Activity (SW-620) was “Not toxic”. The Activity (KATO3) was “Not toxic”, the IC50 (Plasmodium falciparum [2]) was 1600 nM and the Activity (BT-474) was “Not toxic”.

For `C=C1c2ccoc2C[C@H]2[C@H]1[C@@H](OC(C)=O)[C@H](O)[C@@]1(O)C(C)(C)CCC(=O)[C@]21C` [BONDUCELLPIN F], the Activity (CHAGO) was “Not toxic”, the Activity (HepG2) was “Not toxic” and the Activity (SW-620) was “Not toxic”. For the same compound, the Activity (KATO3) was “Not toxic”, the IC50 (Plasmodium falciparum [2]) was 5800 nM and the Activity (BT-474) was “Not toxic”.

In the case of `C=C1c2ccoc2C[C@H]2[C@H]1[C@@H](O)[C@H](OC(C)=O)[C@@]1(O)C(C)(C)CC[C@H](OC(C)=O)[C@]21C` [BONDUCELLPIN G], the Activity (CHAGO) is reported as “Not toxic”, the Activity (HepG2) is reported as “Not toxic” and the Activity (SW-620) is reported as “Not toxic”. For the same compound, the Activity (KATO3) was “Not toxic”, the IC50 (Plasmodium falciparum [2]) was 3800 nM and the Activity (BT-474) was “Not toxic”.
